What is called LOAEL is the lowest dose or exposure tested at which an adverse effect was seen. Usually NOAEL stands for the highest tested level that showed no adverse finding.

This is an account of results in EPA's ToxValDB 9.5.

Data set [1] has as its system Rattus norvegicus. To be noted: oral.
In data set [2] the test system is Rattus norvegicus. Particulars: oral. The source holds these as a separate data set.
Data set [3] relates to Rattus norvegicus. Particulars: subchronic, oral; for NOEL: duration: 13 weeks, Fischer 344.
Data set [4] has as its system Canidae. Particulars: chronic, oral, diet, Dog Other.
Data set [5] has as its system Rattus norvegicus. Particulars: subchronic; duration: 13 weeks; inhalation; nose only; M/F; Fisher 344/Crl BR VAF/Plus; respiratory.
The subject of data set [6] is Mus musculus. Particulars: oral.
Data set [7] deals with Oryctolagus sp. Particulars: reproduction developmental, duration: 13 days, oral, Japanese White.
Data set [8] relates to Rattus norvegicus. To be noted: oral. The source holds these as a separate data set.
[9] abbreviates: subchronic, M, liver/body weight ratio and hepatic microsomal enzyme induction.
The mark [10] stands for this setting: subchronic, M/F, hypoactivity and ataxia.
The mark [11] stands for this setting: duration: 1 years, F, liver effects.
The mark [12] stands for this setting: duration: 1 years, M, liver effects.
The mark [13] stands for this setting: duration: 1 years, M/F, Blood loss into the gastrointestinal tract + coagulation defect in male and female dogs.
Setting [14] is: duration: 1 years, M/F, increased wbc, decreased rbc (females), increased alkaline phosphatase (males).
[15] abbreviates: duration: 6 months, M/F, hematological effects.
Where [16] appears, read: developmental, duration: 6 days, ICR.
[17] abbreviates: reproduction developmental, duration: 6 days, F, ICR.
Where [18] appears, read: short-term, duration: 13 days, gavage, B6C3F1.
The mark [19] stands for this setting: short-term, duration: 16 days, gavage, B6C3F1.
[20] abbreviates: subchronic, duration: 13 weeks, gavage, B6C3F1.
The mark [21] stands for this setting: chronic, duration: 103 weeks, gavage, F, Fischer 344.
The mark [22] stands for this setting: developmental, duration: 7 days, Wistar.
The mark [23] stands for this setting: short-term, duration: 13 days, gavage, Fischer 344.
[24] abbreviates: short-term, duration: 13 days, gavage, M, Fischer 344.
[25] abbreviates: short-term, duration: 16 days, gavage, Fischer 344.
[26] abbreviates: subchronic, duration: 30 days, M, Sprague-Dawley.
Setting [27] is: subchronic, duration: 30 days, Sprague-Dawley.

With `Brc1ccc(Br)cc1` [1,4-Dibromobenzene], the LOAEL in data set [1] (setting [9]) was 20 mg/kg-day. The no-observed-adverse-effect level (NOAEL) is 10 mg/kg-day in data set [1] (setting [9]) and 10 mg/kg-day in data set [2] (subchronic, duration: 45 days, gavage, Liver: Altered enzyme activities + Liver: Increased relative weight).
With `O=C1C=CC(=O)O1` [2,5-Furandione], the NOAEL in data set [3] (duration: 90 days, diet, M/F, Sprague-Dawley, Urinalysis: Pro increase + Absolute Organ Weight: Kidney increase + Relative Organ Weight: Liver increase, Kidney increase + Necropsy: …) was below 100 mg/kg-day; in data set [1] (chronic, M/F, no effects), 10 mg/kg-day; in data set [2] (chronic, duration: 2 years, diet, Kidney: Lesions), 10 mg/kg-day. The LOAEL in data set [1] (reproduction developmental, M/F, renal lesions) is 20 mg/kg-day.
As to `CC(C)CO` [2-Methyl-1-propanol], the no observed adverse effect level (NOAEL) stood at 316 mg/kg-day in data set [3] (duration: 90 days, gavage, M/F, CD, Deaths + Clinical Observation: Hypoactivity Ataxia Salivation Labored respiration Rales Prostration Hypothermia Emaciation + Body Weight …) and 2430 mg/kg-day in data set [3] (drinking water, Wistar). In data set [1] (setting [10]), the lowest-observed-adverse-effect level (LOAEL) came to 1000 mg/kg-day. In addition, the NOEL in data set [1] (setting [10]) came to 316 mg/kg-day; in data set [2] (subchronic, duration: 13 weeks, gavage, Nervous system: Ataxia + Nervous system: Hypoactivity) it was 316 mg/kg-day.
As for `S=C1NCCN1` [4,5-Dihydro-2-mercaptoimidazole], the NOEL in data set [3] (diet, M/F, Body Weight Changes: decrease + Food Consumption: decrease + Histopathology: Thyroid-Diffuse follicular cell hyperplasia Thyroid-Focal …) was below 5.76 mg/kg-day. In addition, the lowest-observed-adverse-effect level (LOAEL) in data set [1] (chronic, duration: 24 months, diet, M/F, increased incidence of thyroid hyperplasia) is 0.25 mg/kg-day; in data set [2] (chronic, duration: 24 months, diet, Thyroid: Hyperplasia), 0.25 mg/kg-day.
Take `[Al+3].[P-3]` [Aluminum phosphide]: the NOAEL in data set [1] (chronic, M/F, body weight and clinical parameters) came out at 0.043 mg/kg-day; in data set [2] (chronic, duration: 2 years, diet, Unspecified: Altered clinical parameters + Whole body: Altered weight), 0.43 mg/kg-day.
For the molecule `[O]=[Sb](=[O])[O][Sb](=[O])=[O]` [Antimony pentoxide], in data set [2] (chronic, drinking water, blood: Altered chemistries + Whole body: Increased mortality), the LOAEL came out at 0.46 mg/kg-day.
For the molecule `COC(=O)c1ccccc1CS(=O)(=O)NC(=O)Nc1nc(OC)cc(OC)n1` [Bensulfuron-methyl], the LEL came out at 223 mg/kg-day in data set [4] (setting [11]) and 237 mg/kg-day in data set [4] (setting [12]). Besides, the NOEL in data set [4] (setting [11]) was found to be 19.9 mg/kg-day; in data set [4] (setting [12]), 21.4 mg/kg-day.
With `CC(C)N1C(=O)c2ccccc2NS1(=O)=O` [Bentazone], in data set [4] (setting [13]), the LOAEL is 13.1 mg/kg-day and the NOAEL was 3.2 mg/kg-day.
With `N#Cc1cc(Br)c(O)c(Br)c1` [Bromoxynil], the NOEL in data set [1] (chronic, duration: 2 years, diet, M/F, no effects) amounted to 5 mg/kg-day; in data set [2] (chronic, duration: 2 years, diet, None Observed), 5 mg/kg-day.
Consider `NCl` [Chloramine], for which the NOAEL worked out at 9.5 mg/kg-day in data set [1] (chronic, M/F, no effects) and 9.5 mg/kg-day in data set [2] (chronic, duration: 2 years, drinking water, Kidney: Weight changes + Liver: Weight changes + Whole body: Weight changes).
As for `CCOC(=O)c1ccccc1S(=O)(=O)NC(=O)Nc1nc(Cl)cc(OC)n1` [Chlorimuron-ethyl], in data set [4] (setting [14]), the LEL was found to be 37.5 mg/kg-day and the NOEL came out at 6.25 mg/kg-day.
For `[Cr+3]` [Chromium (III)], the LOAEL in data set [5] was 3 mg/m3. In data set [2] (chronic, duration: 840 days, diet, None Observed), the “NOEL (% CrO3)” value amounted to 5.
With `N#CC#N` [Cyanogen], in data set [2] (chronic, duration: 2 years, diet, Nerve: Myelin degeneration + Thyroid: Effects + Whole body: Decreased weight), the NOAEL was 21.6 mg/kg-day.
For the molecule `Nc1nc(N)nc(NC2CC2)n1` [Cyromazine], in data set [4] (setting [15]), the LEL is 7.5 mg/kg-day and the NOEL came to 0.75 mg/kg-day.
In the case of `C=C(C)[C@H]1CC=C(C)CC1` [D-Limonene], the no-observed-adverse-effect level (NOAEL) in data set [6] (chronic, duration: 103 weeks, gavage, B6C3F1) was determined as 500 mg/kg-day; in data set [6] (setting [16]) it was 591 mg/kg-day; in data set [6] (setting [17]), 591 mg/kg-day; in data set [6] (setting [18]) it was 500 mg/kg-day; in data set [6] (setting [19]) it was 1650 mg/kg-day; in data set [6] (setting [20]), 500 mg/kg-day. For the same molecule, the no observed adverse effect level (NOAEL) was 250 mg/kg-day in data set [7] (F); above 1000 mg/kg-day in data set [7] (generation: F1); 300 mg/kg-day in data set [8] (setting [21]); 591 mg/kg-day in data set [8] (setting [22]); 591 mg/kg-day in data set [8] (reproduction developmental, duration: 7 days, F, Wistar); 300 mg/kg-day in data set [8] (setting [23]). In addition, the NOAEL in data set [8] (setting [24]) came to 5 mg/kg-day; in data set [8] (setting [25]), 1650 mg/kg-day; in data set [8] (setting [26]), 1380 mg/kg-day; in data set [8] (setting [27]), 1380 mg/kg-day. The lowest-observed-adverse-effect level (LOAEL) was 1000 mg/kg-day in data set [6] (chronic, duration: 103 weeks, gavage, F, B6C3F1); 2360 mg/kg-day in data set [6] (setting [16]); 2360 mg/kg-day in data set [6] (setting [17]); 1000 mg/kg-day in data set [6] (setting [18]); 3300 mg/kg-day in data set [6] (setting [19]); 1000 mg/kg-day in data set [6] (setting [20]). Besides, the lowest observed adverse effect level (LOAEL) stood at 500 mg/kg-day in data set [7] (F); 600 mg/kg-day in data set [8] (setting [21]); 75 mg/kg-day in data set [8] (chronic, duration: 103 weeks, gavage, M, Fischer 344); 2870 mg/kg-day in data set [8] (setting [22]); 600 mg/kg-day in data set [8] (setting [23]); 30 mg/kg-day in data set [8] (setting [24]). In addition, the figures for the LOAEL in data set [8] (setting [25]), in data set [8] (setting [26]) and in data set [8] (setting [27]) were 3300 mg/kg-day, 2770 mg/kg-day and 2770 mg/kg-day, respectively. Also, the figures for the LOAEC in data set [6] (setting [19]) and in data set [8] (setting [25]) were 3300 mg/kg-day and 1650 mg/kg-day, respectively. In data set [3] (gavage, M/F, Deaths + Clinical Observation: Rough hair coats Excessive lacrimation + Body Weight Changes: decrease + Histopathology: Kidney-Nephropathy), the NOEL was below 150 mg/kg-day.
